Consider 18 compounds from US20080193398A1, “Derivatives of Heptaazaphenalene, Methods for Obtaining Them, and Their Use as Protecting Agents Against Uv Radiation” (ISDIN, S.A., priority 2005, published 2008).

Several values for one entry are separate records, joined by “and”; a condition that tells them apart may be missing. Identical values can stand only once.

A word on the melting point: it is the temperature, or range, at which the solid turns liquid.

A short description of data set [1]: UV absorption (UV λmax and εmax) in solution. The data set is classed as physicochemical. From the text:
There follow some examples where the UV λmax and εmax have been measured according to general methods known for the person skilled in the art by way of non-restrictive illustration of the present invention.

With `c1ccc(-c2ccc(NC3=NC4=NC(Nc5ccc(-c6ccccc6)cc5)=NC5=NC(Nc6ccc(-c7ccccc7)cc6)=NC(=N3)N45)cc2)cc1`, the melting point is greater than 310 °C.

`CCCCOC(=O)c1ccc(NC2=NC3=NC(Nc4ccc(C(=O)OCCCC)cc4)=NC4=NC(Nc5ccc(C(=O)OCCCC)cc5)=NC(=N2)N34)cc1` [Example 1, 2,5,8-tris-(4-(butoxycarbonyl)phenylamino)-1,3,4,6,7,9,9b-heptaazaphenalene] gave a melting point of 289 to 290 °C. In addition, in data set [1] (CHCl3—EtOH), the “UV λmax” value is recorded as 325 nm and the εmax is 100000 M⁻¹ cm⁻¹.

For `CCCCC(CC)COC(=O)c1ccc(NC2=NC3=NC(Nc4ccc(C(=O)OCC(CC)CCCC)cc4)=NC4=NC(Nc5ccc(C(=O)OCC(CC)CCCC)cc5)=NC(=N2)N34)cc1` (centres unmarked) [Example 2, 2,5,8-tris-(4-(2-ethylhexyloxycarbonyl)phenylamino)-1,3,4,6,7,9,9b-heptaazaphenalene], the melting point was 183 to 186 °C. Further, in data set [1] (CHCl3), the “UV λmax” value was determined as 326 nm and the εmax turned out to be 95000 M⁻¹ cm⁻¹.

With `c1ccc2[nH]c(-c3ccc(NC4=NC5=NC(Nc6ccc(-c7nc8ccccc8[nH]7)cc6)=NC6=NC(Nc7ccc(-c8nc9ccccc9[nH]8)cc7)=NC(=N4)N56)cc3)nc2c1` [Example 8, 2,5,8-tris-(4-(1H-benzo[d]imidazol-2-yl)phenylamino)-1,3,4,6,7,9,9b-heptaazaphenalene], the melting point is greater than 275 °C.

`O=C(c1ccccc1)c1ccc(NC2=NC3=NC(Nc4ccc(C(=O)c5ccccc5)cc4)=NC4=NC(Nc5ccc(C(=O)c6ccccc6)cc5)=NC(=N2)N34)cc1` [Example 14, 2,5,8-tris-(4-benzoylphenylamino)-1,3,4,6,7,9,9b-heptaazaphenalene]: the melting point is greater than 270 °C. In addition, in data set [1] (DMSO), the “UV λmax” value stood at 339 nm and the εmax was determined as 112000 M⁻¹ cm⁻¹.

Compound `c1cnn(-c2ccc(NC3=NC4=NC(Nc5ccc(-n6cccn6)cc5)=NC5=NC(Nc6ccc(-n7cccn7)cc6)=NC(=N3)N45)cc2)c1` [Example 15, 2,5,8-tris-(4-(1H-pyrazol-1-yl)phenylamino)-1,3,4,6,7,9,9b-heptaazaphenalene] had a melting point of 224 to 227 °C. Moreover, in data set [1] (DMSO), the “UV λmax” value is reported as 330 nm and the εmax was determined as 99000 M⁻¹ cm⁻¹.

Take `c1ccc2cc(NC3=NC4=NC(Nc5ccc6ccccc6c5)=NC5=NC(Nc6ccc7ccccc7c6)=NC(=N3)N45)ccc2c1` [Example 17, 2,5,8-tris-(naphthalen-2-ylamino)-1,3,4,6,7,9,9b-heptaazaphenalene]: the melting point was greater than 275 °C. Also, in data set [1] (DMSO), the “UV λmax” value is 279 nm and 331 nm; the εmax was 89000 M⁻¹ cm⁻¹ and 75000 M⁻¹ cm⁻¹.

In turn, `COc1cccc(NC2=NC3=NC(Nc4cccc(OC)c4)=NC4=NC(Nc5cccc(OC)c5)=NC(=N2)N34)c1` [Example 20, 2,5,8-tris-(3-methoxyphenylamino)-1,3,4,6,7,9,9b-heptaazaphenalene] displayed a melting point greater than 275 °C. Further, in data set [1] (MeOH), the “UV λmax” value turned out to be 312 nm and the εmax came to 62000 M⁻¹ cm⁻¹.

In turn, `CCOC(=O)/C=C/c1ccc(NC2=NC3=NC(Nc4ccc(/C=C/C(=O)OCC)cc4)=NC4=NC(Nc5ccc(/C=C/C(=O)OCC)cc5)=NC(=N2)N34)cc1` [Example 22, 2,5,8-tris-(4-((E)-3-ethoxy-3-oxoprop-1-enyl)phenylamino)-1,3,4,6,7,9,9b-heptaazaphenalene] showed a melting point greater than 275 °C. Also, in data set [1] (DMSO), the “UV λmax” value was 359 nm and the εmax was 135900 M⁻¹ cm⁻¹.

For the compound `CCCCC(CC)COC(=O)/C=C/c1ccc(NC2=NC3=NC(Nc4ccc(/C=C/C(=O)OCC(CC)CCCC)cc4)=NC4=NC(Nc5cccc(/C=C/C(=O)OCC(CC)CCCC)c5)=NC(=N2)N34)cc1` (centres unmarked) [Example 34, 2-(3-((E)-3-(2-ethylhexyloxy)-3-oxoprop-1-enyl)phenylamino)-5,8-bis-(4-((E) -3-(2-ethylhexyloxy)-3-oxoprop-1-enyl)phenylamino)-1,3,4,6,7,9,9b-heptaazaphenalene], in data set [1] (DMSO), the “UV λmax” value is 288 nm and 354 nm; the εmax was 66000 M⁻¹ cm⁻¹ and 113000 M⁻¹ cm⁻¹.

As for `O=[N+]([O-])c1cccc(NC2=NC3=NC(Nc4cccc([N+](=O)[O-])c4)=NC4=NC(Nc5cccc([N+](=O)[O-])c5)=NC(=N2)N34)c1` [Example 35, 2,5,8-tris-(3-nitrophenylamino)-1,3,4,6,7,9,9b-heptaazaphenalene], in data set [1] (DMSO), the “UV λmax” value came to 308 nm and the εmax is 113000 M⁻¹ cm⁻¹.

In the case of `C(=C\c1cccc(NC2=NC3=NC(Nc4cccc(/C=C/c5ccccc5)c4)=NC4=NC(Nc5cccc(/C=C/c6ccccc6)c5)=NC(=N2)N34)c1)/c1ccccc1` [Example 37, 2,5,8-tris-((3-(E)-styrylphenyl)amino)-1,3,4,6,7,9,9b-heptaazaphenalene], in data set [1] (DMSO), the “UV λmax” value was 316 nm and the εmax stood at 167000 M⁻¹ cm⁻¹.

Regarding `CCCCCCCCC(CCCCCC)COC(=O)c1ccc(NC2=NC3=NC(Nc4ccc(C(=O)OCC(CCCCCC)CCCCCCCC)cc4)=NC4=NC(Nc5ccc(C(=O)OCC(CCCCCC)CCCCCCCC)cc5)=NC(=N2)N34)cc1` (centres unmarked) [Example 38, 2,5,8-tris-(4-(^2-hexyldecyloxycarbonyl)phenylamino)-1,3,4,6,7,9,9b-heptaazaphenalene], in data set [1] (DMSO), the “UV λmax” value was 324 nm and the εmax is 121000 M⁻¹ cm⁻¹.

For `CCCCCCCCCCCCCCCCCCOC(=O)c1ccc(NC2=NC3=NC(Nc4ccc(C(=O)OCCCCCCCCCCCCCCCCCC)cc4)=NC4=NC(Nc5ccc(C(=O)OCCCCCCCCCCCCCCCCCC)cc5)=NC(=N2)N34)cc1` [Example 40, 2,5,8-tris-(4-(octadecyloxycarbonyl)phenylamino)-1,3,4,6,7,9,9b-heptaazaphenalene], in data set [1] (DMSO), the “UV λmax” value is 324 nm and the εmax was 117000 M⁻¹ cm⁻¹.

As for `CCCCCCCCCCCCOC(=O)c1ccc(NC2=NC3=NC(Nc4ccc(C(=O)OCCCCCCCCCCCC)cc4)=NC4=NC(Nc5ccc(C(=O)OCCCCCCCCCCCC)cc5)=NC(=N2)N34)cc1` [Example 44, 2,5,8-tris-(4-(dodecyloxycarbonyl)phenylamino)-1,3,4,6,7,9,9b-heptaazaphenalene], in data set [1] (DMSO), the “UV λmax” value worked out at 326 nm and the εmax was found to be 87000 M⁻¹ cm⁻¹.

Regarding `CC12CCC(C1)C(C)(C)C2OC(=O)c1ccc(NC2=NC3=NC(Nc4ccc(C(=O)OC5C6(C)CCC(C6)C5(C)C)cc4)=NC4=NC(Nc5ccc(C(=O)OC6C7(C)CCC(C7)C6(C)C)cc5)=NC(=N2)N34)cc1` (centres unmarked) [Example 45], in data set [1] (DMSO), the “UV λmax” value was determined as 330 nm and the εmax worked out at 150000 M⁻¹ cm⁻¹.

Take `c1cc2cc(NC3=NC4=NC(Nc5ccc6[nH]ccc6c5)=NC5=NC(Nc6ccc7[nH]ccc7c6)=NC(=N3)N45)ccc2[nH]1` [Example 46, 2,5,8-tris-(1H-indol-5-ylamino)-1,3,4,6,7,9,9b-heptaazaphenalene]: in data set [1] (DMSO), the “UV λmax” value is listed as 331 nm and the εmax amounted to 46000 M⁻¹ cm⁻¹.

For the compound `Cc1cc(N)c(NC2=NC3=NC(Nc4cc(C)c(C)cc4N)=NC4=NC(Nc5cc(C)c(C)cc5N)=NC(=N2)N34)cc1C` [Example 48, 2,5,8-tris-(2-amino-4,5-dimethylphenylamino)-1,3,4,6,7,9,9b-heptaazaphenalene], in data set [1] (DMSO), the “UV λmax” value turned out to be 270 nm and the εmax amounted to 44000 M⁻¹ cm⁻¹.
